From patent US20090238852A1, “METHODS FOR CONTROLLING INTRACELLULAR CALCIUM LEVELS ASSOCIATED WITH AN ISCHEMIC EVENT” (University of Utah Research Foundation, priority 2008, published 2009)

Columns and labels:
[1] = system: activated clotting time (ACT); assay: Porcine ischemia/reperfusion model: activated clotting time (ACT); assay type: in vivo, pig; conditions: for ACT group difference versus control: 90 and 180 min after
From the text: Arterial access was achieved via bilateral femoral artery cut-downs for the insertion of 8F sheaths. Central venous and carotid access was achieved via a neck incision to expose the external jugular vein and common carotid artery. Animals were then anticoagulated with 50 U/kg of unfractionated heparin to maintain an activated clotting time (ACT) between 250-350 seconds, prior to ischemia. A 7-8 Fr pigtail catheter was placed in the left ventricular cavity to measure pressure and for injection of […] microspheres. Angiography was performed to define coronary anatomy and measure the diameter of the left anterior descending coronary artery (LAD) at the point of intended balloon occlusion. A coronary sinus catheter was placed via the external jugular vein under fluoroscopic guidance for coronary venous sampling. Baseline cardiodynamic and hemodynamic data were measured using a solid state transducer-tipped catheter in the left ventricle (Millar Instruments, Houston, Tex.) to measure left ventricular pressure, and a fluid-filled transducer connected to the side port of the femoral artery sheath to measure peripheral arterial pressure. Approximately 3-4 million neutron-activated microspheres (BioPhysics Assay Laboratory, Inc, Worcester, Ma) (15 μm) were delivered through a pig-tail catheter into the left ventricle over a 30 second period, to quantify regional myocardial blood flow (RMBF). Simultaneously with injection, a reference sample was withdrawn at a rate of 7 cc/min from the femoral artery sheath, for 90 seconds during and after injection of microspheres. A contrast ventriculogram (60° right anterior oblique) was obtained to assess global and regional myocardial function at baseline. […] Balloon occlusion time was 75 minutes with coronary occlusion confirmed by contrast angiography, ST segment changes on electrocardiography, and quantitatively confirmed by microspheres delivered at the end of ischemia, as described above. […] At the end of 180 minutes of reperfusion, animals were euthanized with an IV injection of pentobarbital sodium (100 mg/kg) and the heart was excised to quantify the area at risk, infarct size, regional myocardial blood flow, and myeloperoxidase activity. Hemodynamic data (left ventricular and arterial blood pressure) and derived variables were recorded continuously using 10× and Datanalyst software (EMKA Technologies, Falls Church, Va.).
Blood anticoagulation was measured by following the ACT, determined using the Hemochron whole blood coagulating system (Hemochron, Edison, N.J.) and measured 10 minutes after delivery of 50 U/kg of unfractionated heparin after the insertion of arterial sheaths. […]

[2] = system: blood coagulation (aPTT); assay: Phase I bolus plus 72 hour infusion study: aPTT; assay type: in vivo, human; conditions: from relationship of aPTT change and ODSH level, FIG. 23
Protocol: A study was performed in eight (8) healthy adult male and female subjects to assess the effects of a bolus dose and 72 hour infusion of 2-O, 3-O desulfated heparin. The study was a Phase I study with a three day treatment period. Doses were adjusted to maintain an aPTT level of 40-45 seconds. Subjects were between the ages of 18 and 60, were not pregnant, and were normal in body weight. They all had normal coagulation function and hemoglobin values at baseline.
Subjects received an initial bolus of 8 mg/kg of ODSH over 15 minutes, followed by 72 hours continuous infusion beginning at 0.58 mg/kg/hr. For each subject ODSH as a 50 mg/ml formulation was diluted with normal saline and administered as a bolus infused over 15 minutes containing the calculated amount of ODSH the subject was to receive, followed by infusion of ODSH diluted in saline. The infusion dose was adjusted to maintain an aPTT of 40-45 seconds. […] Using values for aPTT and ODSH levels, pharmacokinetic parameters were calculated by noncompartmental methods using a commercial software program (PhAST 2.3-001). The following pharmacokinetic parameters were calculated as above: Cmax; Kel; tmax; AUC O-t; AUCinf, t1/2; CL; and Vdss.

[3] = system: myeloperoxidase (MPO) activity; assay: Porcine ischemia/reperfusion model: myeloperoxidase activity in myocardium; assay type: in vivo, pig; conditions: ODSH 45 mg/kg; FIG. 11
From the text: Arterial access was achieved via bilateral femoral artery cut-downs for the insertion of 8F sheaths. Central venous and carotid access was achieved via a neck incision to expose the external jugular vein and common carotid artery. Animals were then anticoagulated with 50 U/kg of unfractionated heparin to maintain an activated clotting time (ACT) between 250-350 seconds, prior to ischemia. A 7-8 Fr pigtail catheter was placed in the left ventricular cavity to measure pressure and for injection of 15 μneutron-activated microspheres. […] Baseline cardiodynamic and hemodynamic data were measured using a solid state transducer-tipped catheter in the left ventricle (Millar Instruments, Houston, Tex.) to measure left ventricular pressure, and a fluid-filled transducer connected to the side port of the femoral artery sheath to measure peripheral arterial pressure. Approximately 3-4 million neutron-activated microspheres (BioPhysics Assay Laboratory, Inc, Worcester, Ma) (15 μm) were delivered through a pig-tail catheter into the left ventricle over a 30 second period, to quantify regional myocardial blood flow (RMBF). […] Balloon occlusion time was 75 minutes with coronary occlusion confirmed by contrast angiography, ST segment changes on electrocardiography, and quantitatively confirmed by microspheres delivered at the end of ischemia, as described above. […]

Substance: 2-O, 3-O desulfated heparin [ODSH]
- elevation above control in ACT ([1]; 15 mg/kg dose group): approximately 200 seconds
- ACT group difference versus control ([1]; ODS 5 mg/kg, end ischemia): no significant differences in ACT
- ACT group difference versus control ([1]; ODS 15 mg/kg, end ischemia): no significant differences in ACT
- ACT compared to the other groups ([1]; ODS 45 mg/kg, end ischemia, 90 and 180 min after end of ischemia, on 50 U/kg UFH background): significantly higher
- aPTT above baseline at ODSH blood concentrations of 100 μg/mL [2]: approximately 50 seconds
- aPTT absolute value at ODSH blood concentrations of 100 μg/mL [2]: about 75 seconds
- MPO activity in ischemic-reperfused myocardium [3]: significantly reduced
